“And” between values parts separate entries of the source, which are not always exact repeats. Identical values can stand only once.
What was measured:
[1] = test system: complement serum (guinea pig complement); experiment: Anti-complement activity: 50% inhibition of hemolysis of sensitized erythrocytes; format: cell-based; details: 37° C., 60 minutes, guinea pig complement diluted 150 times; for IC50: Cavia porcellus, Erythrocyte, 1 h, OD413, read-out: Anti-Complement Activity Value (50% hemolysis inhibitory activity value)
Protocol: The anti-complement activity was measured and confirmed by the testing method described in Meneki Kagaku (Immuno-Chemistry), Yuichi Yamamura et al., Ed. pages 830-834, Asakura Shoten, Tokyo, Japan (1973). Specifically,a test tube was charged with 0.5 ml of an aqueous dispersion of each of the test compounds, 0.5 ml of sensitized erythrocytes (EA) containing 1×10^8 cells/ml, 1 ml of a 5-fold diluted solution of a Veronal buffer solution containing gelatin, Ca^++ and Mg^++ (GVB^++), and 0.5 ml of complement serum (guinea pig complement) diluted to 150 times with the GVB^++. The mixture was maintained hot at 37° C. for 60 minutes. Then, 5 ml of an ice-cold physiological saline solution was added thereto, and the mixture was centrifuged. […] The 50% hemolysis inhibitory activity value (γ/ml) measured by the above method is shown in Table 2 below for each test compound.

[2] = test system: Heymann-type Nephritis; experiment: Therapeutic effects on Heymann-type nephritis (proteinuria); format: in vivo, male Wistar rats; details: for activity of curing Heymann-type nephritis: test of Table 4, result in words; for amount of proteinurea, Average: average of 3 replications; for amount of proteinurea: individual replication
Protocol: Male Wistar rats with a body weight of 180 to 200 g were used in the test. Rat kidney cortex was extracted, and homogenized with an equal quantity by volume of a physiological saline solution. The homogenate was centrifuged at 1500 G for 1 hour. The supernatant liquid was purified in accordance with the method of T. S. […] The resulting mixture was injected intraperitoneally into isologous rats in an amount of 0.5 ml per rat. […] (This period was about 6 to 8 weeks.) […] CP was used as a comparison compound, and physiological saline solution was used as a control. Three replications were conducted for each test compound.

[3] = test system: Nephrotoxin-Type Nephritis; experiment: Therapeutic effect on nephrotoxin-type nephritis (proteinuria); format: in vivo, male Wistar rats; details: for inhibition of the primary reaction of nephrotoxin-type nephritis: same test as Table 3; for amount of proteinurea, Average: average of 3 replications; for amount of proteinurea, Average / amount of proteinurea: 5 mg per rat i.p. once daily, 7 days; for amount of proteinurea: individual replication
From the text: Rat nephrotoxin ("NT" for brevity) was obtained as described below. Rat kidney cortex was homogenized with an equal quantity of physiological saline. The homogenized mixture was mixed with Freund's complete adjuvant (a product of Difco Company) in a volume ratio of 1:1. Two milliliters of the resulting mixture was intramuscularly injected into a rabbit (body weight 3,100 g) to immunize the rabbit. A month and a half later, blood was taken from the heart of the rabbit and serum was obtained. The resulting serum was inactivated at 56° C. for 30 minutes, then salted out with a 40% saturated aqueous solution of ammonium sulfate, and fractionated. The γ-globulin (IgG) fraction was collected to obtain NT.
The evaluation was carried out using male Wistar rats with a body weight of 150 to 160 g with three replications for each test compound. The test compound was intraperitoneally administered once every 24 hours for seven days. One hour after the administration of the test compound on the third day, the NT was applied. The NT was intravenously injected in an amount of 1 ml at a tail vein of each rat. Chlorophyllin (CP) was used as a comparison compound, and physiological saline solution was used as a control.
The proteinuria level (total amount excreted into the urine over a 24 hour period) was measured using turbidometry employing bovine serum albumin as a control by means of sulfosalicylic acid.

[4] = Acute toxicity on intravenous administration to mice; details: mouse, in vivo
[5] = Before Administration, group of 5 mg per rat i.p.
[6] = Day 1, 5 mg per rat i.p. once a day, 7 days
[7] = Day 4, 5 mg per rat i.p. once a day, 7 days
[8] = Day 7, 5 mg per rat i.p. once a day, 7 days
[9] = Day 14, 5 mg per rat i.p. once a day, 7 days
[10] = Day 21, 5 mg per rat i.p. once a day, 7 days

CC(=O)OCc1cc(OC(C)=O)c2c(c1COC(C)=O)OC1(C2)C(C)CCC2C(C)(C)C(OC(C)=O)C(OC(C)=O)CC21C (centres unmarked) [Compound No. (25), 6,7-Diacetyloxy-2,5,5,8a-tetramethyl-1,2,3,4,4a,5,6,7,8,8a-decahydronaphthalene-1-spiro-2'-(6',7'-diacetyloxymethyl-4'-acetyloxy-2',3'-dihydrobenzofuran)]
IC50 [1]: 600 µg/mL | activity of curing Heymann-type nephritis [2]: a substantial activity of curing Heymann-type nephritis | inhibition of the primary reaction of nephrotoxin-type nephritis ([3]; result in words): found to inhibit the primary reaction

CC1CCC2C(C)(C)C(O)C(O)CC2(C)C12Cc1c(O)cc(O)c(O)c1O2 (centres unmarked) [(2), 6,7-Dihydroxy-2,5,5,8a-tetramethyl-1,2,3,4,4a,5,6,7,8,8a-decahydronaphthalene-1-spiro-2'-(4',6',7'-trihydroxy-2',3'-dihydrobenzofuran)]
IC50 [1]: 80 µg/mL | LD50 [4]: 150 mg/kg

CC1CCC2C(C)(C)C(O)C(O)CC2(C)C12Cc1c(O)cc(CO)c(CO)c1O2 (centres unmarked) [(11), 6,7-Dihydroxy-2,5,5,8a-tetramethyl-1,2,3,4,4a,5,6,7,8,8a-decahydronaphthalene-1-spiro-2'-(6',7'-dihydroxymethyl-4'-hydroxy-2',3'-dihydrobenzofuran)]
IC50 [1]: 500 µg/mL | activity of curing Heymann-type nephritis [2]: a substantial activity of curing Heymann-type nephritis | inhibition of the primary reaction of nephrotoxin-type nephritis ([3]; result in words): found to inhibit the primary reaction

CC1CCC2C(C)(C)C3OC(C)(C)OC3CC2(C)C12Cc1c(O)cc3c(c1O2)C(=O)OC3 (centres unmarked) [Compound No. (62), 4-Hydroxy-8-oxo-2,3,6,8-tetrahydro-furo[3,4-g]benzofuran-2-spiro-1'-(6',7'-isopropylidenedioxy-2',5',5',8'a-tetramethyl-1',2',3',4',4'a,5',6',7',8',8'a-decahydronaphthalene)]
IC50 [1]: 450 µg/mL | activity of curing Heymann-type nephritis [2]: a substantial activity of curing Heymann-type nephritis | inhibition of the primary reaction of nephrotoxin-type nephritis ([3]; result in words): found to inhibit the primary reaction

CC1CCC2C(C)(C)C(O)C(O)CC2(C)C12Cc1c(O)cc(C=C(C#N)C(=O)O)c(C=C(C#N)C(=O)O)c1O2 (centres unmarked) [(6), 6,7-Dihydroxy-2,5,5,8a-tetramethyl-1,2,3,4,4a,5,6,7,8,8a-decahydronaphthalene-1-spiro-2'-[6',7'-di-(2-cyano-2-carboxyvinyl)-4'-hydroxy-2',3'-dihydrobenzofuran]]
IC50 [1]: 40 µg/mL | LD50 [4]: 250 mg/kg | amount of proteinurea, Average [2, 5]: 121 mg/day | amount of proteinurea [2, 5]: 98 mg/day and 127 mg/day and 139 mg/day | amount of proteinurea, Average [2, 6]: 116 mg/day | amount of proteinurea [2, 6]: 113 mg/day and 121 mg/day and 116 mg/day | amount of proteinurea, Average [2, 7]: 56 mg/day | amount of proteinurea [2, 7]: 48 mg/day and 63 mg/day and 57 mg/day | amount of proteinurea, Average [2, 8]: 37 mg/day | amount of proteinurea [2, 8]: 36 mg/day and 47 mg/day and 29 mg/day | amount of proteinurea, Average [2, 9]: 17 mg/day | amount of proteinurea [2, 9]: 18 mg/day and 21 mg/day and 13 mg/day | amount of proteinurea, Average [2, 10]: 12 mg/day | amount of proteinurea [2, 10]: 8 mg/day and 15 mg/day and 14 mg/day | amount of proteinurea, Average ([3]; Day 1): 2.5 mg/day | amount of proteinurea ([3]; Day 1): 2.1 mg/day and 1.5 mg/day and 3.7 mg/day | amount of proteinurea, Average ([3]; Day 4): 1.8 mg/day | amount of proteinurea ([3]; Day 4): 1.9 mg/day and 1.2 mg/day and 2.3 mg/day | amount of proteinurea, Average ([3]; Day 7): 1.0 mg/day | amount of proteinurea ([3]; Day 7): 0.8 mg/day and 0.9 mg/day and 1.4 mg/day | amount of proteinurea, Average ([3]; Day 10): 10 mg/day | amount of proteinurea ([3]; Day 10): 13 mg/day and 7 mg/day and 9 mg/day

CC1CCC2C(C)(C)C(O)C(O)CC2(C)C12Cc1c(O)cc(CO)c(C(=O)O)c1O2 (centres unmarked) [(8), 6,7-Dihydroxy-2,5,5,8a-tetramethyl-1,2,3,4,4a,5,6,7,8,8a-decahydronaphthalene-1-spiro-2'-(7'-carboxy-6'-hydroxymethyl-4'-hydroxy-2',3'-dihydrobenzofuran)]
IC50 [1]: 125 µg/mL | activity of curing Heymann-type nephritis [2]: a substantial activity of curing Heymann-type nephritis | inhibition of the primary reaction of nephrotoxin-type nephritis ([3]; result in words): found to inhibit the primary reaction

CC1CCC2C(C)(C)C(O)C(O)CC2(C)C12Cc1c(O)cc(C=C(C#N)C#N)c(C=C(C#N)C#N)c1O2 (centres unmarked) [(3), 6,7-Dihydroxy-2,5,5,8a-tetramethyl-1,2,3,4,4a,5,6,7,8,8a-decahydronaphthalene-1-spiro-2'-[6',7'-di-(2,2-dicyanovinyl)-4'-hydroxy-2',3'-dihydrobenzofuran]]
IC50 [1]: 40 µg/mL | LD50 [4]: 200 mg/kg

COc1cc(CO)c(CO)c2c1CC1(O2)C(C)CCC2C(C)(C)C(O)C(O)CC21C (centres unmarked) [(12), 6,7-Dihydroxy-2,5,5,8a-tetramethyl-1,2,3,4,4a,5,6,7,8,8a-decahydronaphthalene-1-spiro-2'-(6',7'-dihydroxymethyl-4'-methoxy-2',3'-dihydrobenzofuran)]
IC50 [1]: 250 µg/mL | activity of curing Heymann-type nephritis [2]: a substantial activity of curing Heymann-type nephritis | inhibition of the primary reaction of nephrotoxin-type nephritis ([3]; result in words): found to inhibit the primary reaction

Chlorophyllin [reference compound]
Anti-Complement Activity Value (50% hemolysis inhibitory activity value) ([1]; OD413): 40 µg/mL | amount of proteinurea, Average [2, 5]: 123 mg/day | amount of proteinurea [2, 5]: 123 mg/day and 117 mg/day and 129 mg/day | amount of proteinurea, Average [2, 6]: 115 mg/day | amount of proteinurea [2, 6]: 116 mg/day and 108 mg/day and 121 mg/day | amount of proteinurea, Average [2, 7]: 62 mg/day | amount of proteinurea [2, 7]: 72 mg/day and 63 mg/day and 52 mg/day | amount of proteinurea, Average [2, 8]: 28 mg/day | amount of proteinurea [2, 8]: 32 mg/day and 29 mg/day and 22 mg/day | amount of proteinurea, Average [2, 9]: 14 mg/day | amount of proteinurea [2, 9]: 16 mg/day and 12 mg/day and 15 mg/day | amount of proteinurea, Average [2, 10]: 10 mg/day | amount of proteinurea [2, 10]: 10 mg/day and 8 mg/day and 13 mg/day | amount of proteinurea, Average ([3]; Day 1): 3.4 mg/day | amount of proteinurea ([3]; Day 1): 2.4 mg/day and 4.4 mg/day and 3.2 mg/day | amount of proteinurea, Average ([3]; Day 4): 2.1 mg/day | amount of proteinurea ([3]; Day 4): 1.5 mg/day and 2.6 mg/day and 2.1 mg/day | amount of proteinurea, Average ([3]; Day 7): 2.0 mg/day | amount of proteinurea ([3]; Day 7): 0.9 mg/day and 1.7 mg/day and 3.5 mg/day | amount of proteinurea, Average ([3]; Day 10): 8 mg/day | amount of proteinurea ([3]; Day 10): 9 mg/day and 8 mg/day and 6 mg/day | amount of proteinurea compared with healthy rat ([3]; from administration of NT to 10 days after, result in words): substantially the same as that of a healthy rat

CCOC(=O)C(C#N)=Cc1cc(O)c2c(c1C=C(C#N)C(=O)OCC)OC1(C2)C(C)CCC2C(C)(C)C(O)C(O)CC21C (centres unmarked) [(4), 6,7-Dihydroxy-2,5,5,8a-tetramethyl-1,2,3,4,4a,5,6,7,8,8a-decahydronaphthalene-1-spiro-2'-[6',7'-di-(2-cyano-2-ethoxycarbonylvinyl)-4'-hydroxy-2',3'-dihydrobenzofuran]]
IC50 [1]: 80 µg/mL | LD50 [4]: 200 mg/kg
